{"source": "patent US5849484A", "about": "“In vitro assay for inhibitors of the intron self-splicing reaction in Pneumocystis carinii” (University of Medicine & Dentistry of NJ, priority 1995, dated 1998)", "key": {"[1]": {"system": "Group I self-splicing intron (ribozyme) from the 26S rRNA gene of Pneumocystis carinii, isolate Pc1", "experiment": "In vitro self-splicing of the Group I intron, assayed by splicing of [32P]RNA precursor or by [alpha-32P]GTP incorporation", "type": "biochemical", "details": "for mode of inhibition (kinetic analysis): relative to GTP/guanosine; for inhibition of splicing of the 26S rRNA intron: result in words, 5 mM MgCl2, 100 μM GTP unless otherwise indicated, 37° C., 20 minutes; for inhibition of splicing at 500 μM: inhibitor at 500 μM; for replacement of GTP in the splicing reaction: equal concentrations to GTP", "protocol": "Polymerase chain reaction (PCR) amplification (56) of the intron from the 26S rRNA gene and a portion of the 5' and 3' flanking exons (660 nucleotides of amplified rRNA gene), between nucleotides 1963 and 2267 of 26S rRNA of isolate Pc1 was performed with primers 4208 (5'-[…]-3') (SEQ ID NO:33), whose first 17 nucleotides are a bacteriophage SP6 promoter (57), and 4358 (5'-GACGAGGCATTTGGCTACC-3') (SEQ ID NO:35) in a DNA Thermal Cycler (Perkin-Elmer-Cetus), under conditions recommended by the manufacturer. For some experiments a longer PCR product (1296 nucleotides of amplified rRNA gene) was generated by similar methods, using primers 4208 and 3734 (5'-[…]-3') to amplify the region between nucleotides 1963 and 2903 of 26S rRNA. Transcription of PCR product DNA (1 μg) by SP6 RNA polymerase to produce E1-I-E2 RNA precursor (1296 or 660 nucleotides in length) was carried out using the Riboprobe System II (Promega) under the recommended conditions.\nRadioactive RNA precursor (1296 nucleotides, 1 nM) was incubated at 37° C. for 30 minutes in the presence of 50 mM Tris-HCl, pH 7.5, 0.4 mM spermidine, 4 units of RNasin, 100 μM guanosine triphosphate (GTP) and the indicated concentrations of MgCl2 in a volume of 10 μl. Reactions were terminated by addition of 10 μl of 8M urea containing 5 mM Na-EDTA, pH 8.0, and 0.025% each of bromphenol blue and xylene cyanol, followed by heating at 65° C. for 3 minutes and PAGE, with visualization by autoradiography. Lane M contains RNA standards (molecular weights 1.77, 1.52, 1.28, 0.78, 0.53, 0.40, 0.28, and 0.16 kd, BRL), 5'-labeled with ^32 p using bacteriophage T4 polynucleotide kinase (Pharmacia). Lane 1, purified RNA precursor; lane 2, GTP omitted, 5 mM MgCl2; lane 3, no MgCl2, 1 mM EDTA; lanes 4-11, reactions run in the presence of 0, 1, 5, 25, 50, 100, 200 or 500 mM MgCl2, respectively. O indicates origin; P, RNA precursor; I, linear intron; E1-E2, spliced RNA product; C, presumed circularized intron. Bands corresponding to the 5' exon (E1) and G-intron-3' exon (I-E2) are not visible on this exposure.\nFIGS. 13A through 13D show the inhibition of intron splicing by antibiotics. All experiments were done with 660 nucleotide RNA precursor. In vitro splicing of [^32 P]RNA precursor was performed in the presence of 5 mM MgCl2 and 100 μM GTP (unless otherwise indicated) at 37° C. for 20 minutes as in FIG. 12. Splicing of unpurified transcripts extracted from SP6 RNA polymerase reactions was performed with 12.5 nM of [α-^32 P]GTP replacing non-radioactive GTP. Bands are identified as in FIG. 12. FIG. 13A: Inhibition by gentamicin and tetracycline. Purified [^32 P]RNA precursor splicing was performed as indicated. Lane 1, control without GTP; lane 2, complete reaction without antibiotics; lanes 3-7, gentamicin present at 50, 100, 200, 250 and 500 μM; lanes 8-12, tetracycline present at 10, 50, 100, 200, and 400 μM. FIG. 13B: Inhibition of intron splicing by gentamicin and tetracycline. Splicing of non-radioactive RNA was assayed in the presence of [^32 P]GTP with no antibiotic (lanes 1 and 7), with 50, 100, 200, 300, and 500 μM gentamicin (lanes 2-6), and with 50, 100, 200, and 400 μM tetracycline (lanes 8-11). FIG. 13C: Splicing inhibition by ethidium bromide. Reactions of [^32 P]RNA precursor were run in the presence of 10 μM GTP (except lane 1 which contained neither GTP nor ethidium bromide); lanes 2-7, reactions run in the presence of ethidium bromide at 0, 0.5, 1, 5, 10, and 25 μM, respectively. […] FIG. 13D: Inhibition of splicing by ethidium bromide, as measured by incorporation of [α-^32 P]GTP. Lanes 1-5, reactions run in the presence of 0, 0.5, 1, 5 and 25 μM ethidium bromide, respectively.\nFIGS. 14A and 14B show the inhibition of intron splicing by pentamidine. Reactions were performed as in FIG. 13, with 660 nucleotide RNA precursor. FIG. 14A: Assays of splicing of [^32 P]RNA precursor. […]"}, "[2]": {"system": "Group I self-splicing intron from the 16S rRNA gene of P. carinii", "experiment": "In vitro self-splicing of the intron from the 16S rRNA gene", "type": "biochemical, Pneumocystis carinii", "details": "result in words", "text": "Inhibition by aminoglycosides of splicing of other group I introns has previously been described (55,61). […] Some radioactivity remaining at the gel origin and a decrease in precursor entering the gel in the presence of high levels of gentamicin (FIG. 13A) may reflect RNA binding by the antibiotic. […] This mechanism would be consistent with the lack of inhibition of splicing of group II introns by these agents (55,61).\nAlternatively, the paired aromatic rings and/or positively charged moieties of pentamidine might act to distort the intron's secondary structure, which is critical to its catalytic function (63). […] If the ability of pentamidine analogues (49) to inhibit splicing correlates with in vivo activity against experimental PCP then this assay would be useful for this purpose."}, "[3]": {"system": "Saccharomyces cerevisiae", "details": "grown in glycerol versus fermentable sugars; cited from earlier work"}}}
{"compound": "N=C(N)NCCC[C@H](N)C(=O)O", "note": "[arginine]", "values": [{"measurement": "mode of inhibition (kinetic analysis)", "setting": "[1]", "result": "competitively"}, {"measurement": "inhibition of splicing of the 26S rRNA intron", "setting": "[1]", "result": "inhibited competitively by high concentrations"}]}
{"compound": "COc1ccc(C[C@H](N)C(=O)N[C@H]2[C@@H](O)[C@H](n3cnc4c(N(C)C)ncnc43)O[C@@H]2CO)cc1", "note": "[puromycin]", "values": [{"measurement": "inhibition of splicing at 500 μM", "setting": "[1]", "result": "failed to inhibit splicing by either assay"}]}
{"compound": "Nc1nc2c(ncn2[C@@H]2O[C@H](COP(=O)(O)OP(=O)(O)O)[C@@H](O)[C@H]2O)c(=O)[nH]1", "note": "[GDP, guanosine diphosphate]", "values": [{"measurement": "replacement of GTP in the splicing reaction", "setting": "[1]", "result": "replaceable by equal concentrations"}]}
{"compound": "CN[C@@H]1[C@@H](O)[C@@H](O[C@@H]2[C@@H](O)[C@H](O[C@H]3O[C@H]([C@@H](C)O)[C@@H](O)[C@H](O)[C@H]3N)[C@@H](N)C[C@H]2N)OC[C@]1(C)O", "note": "[G418]", "values": [{"measurement": "inhibition of splicing at 500 μM", "setting": "[1]", "result": "failed to inhibit splicing"}]}
{"compound": "CCC[C@@H]1C[C@@H](C(=O)N[C@@H]([C@H]2O[C@H](SC)[C@H](O)[C@@H](O)[C@H]2O)[C@H](C)Cl)N(C)C1", "note": "[clindamycin]", "values": [{"measurement": "inhibition of splicing at 500 μM", "setting": "[1]", "result": "failed to inhibit splicing by either assay"}]}
{"compound": "tri-arginine", "values": [{"measurement": "potency relative to L-arginine / arginine", "setting": "[1]; inhibition of splicing", "result": "at least 1,000 times"}]}
{"compound": "N=C(N)NCCC[C@@H](N)C(=O)O", "note": "[D-arginine]", "values": [{"measurement": "inhibition of splicing of the 26S rRNA intron", "setting": "[1]", "result": "greater for L-arginine than D-arginine"}]}
{"compound": "C[C@@H]1C[C@@H]([C@H](O)CC2CC(=O)NC(=O)C2)C(=O)[C@@H](C)C1", "note": "[cycloheximide]", "values": [{"measurement": "inhibition of splicing at 500 μM", "setting": "[1]", "result": "failed to inhibit splicing by either assay"}]}
{"compound": "CN(C)C1C(=O)C(C(N)=O)=C(O)C2(O)C(=O)C3=C(O)c4c(O)cccc4C(C)(O)C3CC12", "note": "(centres unmarked) [tetracycline]", "values": [{"measurement": "mode of inhibition (kinetic analysis)", "setting": "[1]", "result": "non-competitive with GTP"}, {"measurement": "inhibition of splicing of the 26S rRNA intron", "setting": "[1]", "result": "inhibits RNA splicing"}]}
{"compound": "CC1(C)S[C@@H]2[C@H](NC(=O)[C@H](N)c3ccccc3)C(=O)N2[C@H]1C(=O)O", "note": "[Ampicillin]", "values": [{"measurement": "inhibition of splicing at 500 μM", "setting": "[1]", "result": "failed to inhibit"}]}
{"compound": "N=C(N)NCCC[C@H](N)C(=O)O", "note": "[L-arginine]", "values": [{"measurement": "effect on the first step of the splicing reaction", "setting": "[1]; kinetic analysis", "result": "inhibiting the first step"}, {"measurement": "effect on the second step of the splicing reaction", "setting": "[1]; kinetic analysis", "result": "activate the second step"}, {"measurement": "inhibition of splicing of the 26S rRNA intron", "setting": "[1]", "result": "greater for L-arginine than D-arginine"}]}
{"compound": "Nc1nc2c(ncn2[C@@H]2O[C@H](COP(=O)(O)OP(=O)(O)OP(=O)(O)O)[C@@H](O)[C@H]2O)c(=O)[nH]1", "note": "[GTP, guanosine triphosphate]", "values": [{"measurement": "Km", "setting": "[1]; in vitro splicing, 5 mM MgCl2, 37° C.", "result": 3, "unit": "µM"}]}
{"compound": "[H]/N=C(/N)N[C@H]1[C@H](O)[C@@H](O)[C@H](O[C@@H]2O[C@@H](C)[C@](O)(C=O)[C@H]2O[C@@H]2O[C@@H](CO)[C@H](O)[C@@H](O)[C@@H]2NC)[C@@H](N/C(N)=N\\[H])[C@@H]1O", "note": "[streptomycin]", "values": [{"measurement": "mode of inhibition (kinetic analysis)", "setting": "[1]", "result": "competition with guanosine"}]}
{"compound": "N=C(N)c1ccc(OCCCCCOc2ccc(C(=N)N)cc2)cc1", "note": "[Pentamidine]", "values": [{"measurement": "inhibition of splicing of the 16S rRNA intron", "setting": "[2]", "result": "inhibited splicing"}, {"measurement": "sensitivity of growth to pentamidine", "setting": "[3]", "result": "more sensitive to pentamidine when grown in glycerol than in various fermentable sugars"}, {"measurement": "effect on the first step of the splicing reaction", "setting": "[1]; kinetic analysis", "result": "acting on the first step"}, {"measurement": "mode of inhibition (kinetic analysis)", "setting": "[1]", "result": "non-competitive"}, {"measurement": "inhibition of splicing of the 26S rRNA intron", "setting": "[1]", "result": "inhibited splicing"}]}
{"compound": "gentamicin", "values": [{"measurement": "sensitivity of splicing assayed by incorporation of [α-32P]GTP into I and I-E2", "setting": "[1]; compared with splicing of radioactive RNA precursor, 12.5 nM [α-32P]GTP", "result": "less sensitive"}, {"measurement": "inhibition of splicing of the 26S rRNA intron", "setting": "[1]", "result": "inhibited splicing"}]}
{"compound": "Nc1nc2c(ncn2[C@@H]2O[C@H](COP(=O)(O)O)[C@@H](O)[C@H]2O)c(=O)[nH]1", "note": "[GMP, guanosine monophosphate]", "values": [{"measurement": "replacement of GTP in the splicing reaction", "setting": "[1]", "result": "replaceable by equal concentrations"}]}
{"compound": "NC(=O)NCCC[C@H](N)C(=O)O", "note": "[citrulline]", "values": [{"measurement": "inhibition of splicing of the 26S rRNA intron", "setting": "[1]", "result": "no detectable inhibition"}]}
{"compound": "O=C(N[C@H](CO)[C@H](O)c1ccc([N+](=O)[O-])cc1)C(Cl)Cl", "note": "[chloramphenicol]", "values": [{"measurement": "inhibition of splicing at 500 μM", "setting": "[1]", "result": "failed to inhibit splicing by either assay"}]}
{"compound": "O=C(O)C1=CC(=C(c2ccc(O)c(C(=O)O)c2)c2ccc(O)c(C(=O)O)c2)C=CC1=O", "note": "[aurintricarboxylic acid]", "values": [{"measurement": "inhibition of splicing at 500 μM", "setting": "[1]", "result": "failed to inhibit splicing by either assay"}]}
{"compound": "CC[n+]1c(-c2ccccc2)c2cc(N)ccc2c2ccc(N)cc21", "note": "[ethidium bromide]", "values": [{"measurement": "inhibition of splicing of the 26S rRNA intron", "setting": "[1]", "result": "completely inhibiting splicing by either assay"}]}
